Assay results as given in article PMC12509006, “Synthesis and Evaluation of Pyridine-Based Antibacterial Agents that Inhibit ATP Synthase in Acinetobacter baumannii” (ACS Omega, 2025).
≈ marks a conversion by molar mass, not a printed value. Read-outs that look alike come from different tables or passages of the source.

How the values were obtained:
[1] = test system: HEK 293 cells; assay: XTT cell viability cytotoxicity assay; conditions: n = 3, 24 h treatment
[2] = test system: MDR AB BAA 1605; assay: Broth microdilution antimicrobial susceptibility assay, MDR isolate; conditions: Acinetobacter baumannii, BAA1605, read-out: MIC, MDR AB BAA 1605
[3] = test system: AB ATCC 17978; assay: Broth microdilution antimicrobial susceptibility assay, susceptible isolate; conditions: Acinetobacter baumannii, ATCC17978, read-out: MIC, AB ATCC 17978
[4] = target: T1, A. baumannii ATP synthase (Acinetobacter baumannii, UniProt A3M139); assay: AB ATP synthase inhibition: NADH-driven ATP synthesis in inverted inner membrane vesicles, luciferin/luciferase readout; format: biochemical; conditions: for Hill coefficient (Hill slope): fit of ATP synthesis dose response curve
T1 construct: endogenous electron transport chains of inverted inner membrane vesicles were energized with NADH; endogenous in cells; host or cells: inverted inner membrane vesicles prepared from A. baumannii ATCC 17978 cells
T1 sequence (A3M139 whole entry): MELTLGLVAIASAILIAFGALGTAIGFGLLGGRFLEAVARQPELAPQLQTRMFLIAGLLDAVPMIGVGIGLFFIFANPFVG
Description: Once synthesized, the pyridine compounds were tested for their ability to inhibit ATP synthase activity using our previously reported luciferin/luciferase assay. Briefly, endogenous electron transport chains of inverted inner membrane vesicles were energized with NADH to generate a proton gradient and to drive ATP synthesis. ATP was measured via luminescence from the luciferase-catalyzed oxidation of D-luciferin. Luminescence activities across increasing inhibitor concentrations were corrected for gradient independent background sources of ATP by comparison with a control containing the protonophore CCCP (carbonyl cyanide 3-chlorophenylhydrazone). The data were then fit to a four-parameter logistic dose–response curve, from which IC50 values and Hill coefficients were determined using a nonlinear least-squares regression.
A. baumannii (ATCC 17978) cells were grown in LB medium at 37 °C with shaking at 150 rpm and harvested by centrifugation in the late exponential phase of growth. Cells were resuspended in TMG buffer (50 mM Tris-HCl, pH 7.5, 5 mM MgCl2, 10% v/v glycerol) with 1 mM phenylmethanesulfonyl fluoride, 1 mM dithiothreitol, and a small amount of DNase and lysed by two passes through an Avestin B15 homogenizer at 19,000 psi. Lysate was cleared by centrifugation at 9000g and inverted membrane vesicles were collected from the supernatant by centrifugation at 169,000g. To reduce background ATP synthesis activity in AB vesicles, it was important to wash the membranes by resuspending in TMG buffer and centrifuging again at 169,000g. Washed pellets were resuspended in TMG buffer, and aliquots were stored at −80 °C. Once thawed, aliquots were not refrozen. Protein concentration in membrane vesicles was determined using a modified Lowry assay.
In vitro ATP synthesis activity of inverted inner membrane vesicles was measured as previously described. A reaction solution was prepared containing 5 mM tricine-KOH, pH 8.0, 50 mM KCl, 2.5 mM MgCl2, 0.1 mM adenosine diphosphate, 3.75 mM potassium phosphate, and 2.5 mM NADH and distributed into a 96-well plate. NADH-driven ATP synthesis was initiated by addition of inverted vesicles to 50 μg/mL and allowed to proceed for 10 min. The reaction was stopped by transferring an aliquot into 1% trichloroacetic acid. The stopped reaction was diluted 100-fold with deionized water and a sample was transferred to luciferase solution containing 25 mM tricine-NaOH, pH 7.8, 5 mM MgSO4, 0.1 mM EDTA, 0.1 mM NaN3, 150 μg/mL luciferin, and 7.5 μg/mL luciferase. Luminescence was measured in an opaque white 96-well plate using a BioTek H1 multimode plate reader. Each replicate set included a positive control containing DMSO with no compound and a negative control containing carbonyl cyanide 3-chlorophenylhydrazone (CCCP). Luminescence values were corrected for background by subtracting the CCCP control and normalized to the luminescence of the DMSO control. Normalized activity was fit using a variable-slope dose response curve. Nonlinear regression, including prediction of 95% confidence bands, and pairwise comparisons of fits using the F-test method were completed using GraphPad Prism10. Relativeactivity=1/1+(c/IC50)^Hillslope […]
Figure S1. ATP synthesis inhibition by all pyridine compounds in order of WSA compound number. ATP synthesis activities in inverted inner membrane vesicles prepared from AB cells were measured in the presence of 0.0625-64 µg/mL, corrected for background ATP, and normalized to activity with DMSO alone (see methods). For each plot, dots are normalized activities at each concentration (n≥3) on a log 2 scale, solid lines are fitted dose response curves, and dashed lines show the 95% confidence range of the fit. IC50

[5] = test system: AB BAA 1605; assay: Checkerboard assay with colistin sulfate, BAA 1605; conditions: without partner drug
[6] = test system: AB ATCC 17978; assay: Checkerboard assay with colistin sulfate, ATCC 17978; conditions: without partner drug
[7] = inverted inner membrane vesicles, 0.0625-64 µg/mL, n≥3, Table S1, read-out: AB ATP Synthase Inhibition IC50 (converted)
[8] = Figure 2, read-out: IC50, AB ATP synthase inhibition (converted)

| MIC alone, AB BAA 1605 [5] | MIC alone, AB ATCC 17978 [6] | Molecule | MIC, HEK 293 (cytotoxicity) [1] | MIC [2] | MIC [3] | Hill coefficient (Hill slope) [4] | IC50 [4, 7] | IC50 [4, 8] | Hill coefficient (Hill slope) ([4]; listed as WSA305) |
| --- | --- | --- | --- | --- | --- | --- | --- | --- | --- |
|  |  | COc1nc2ccc(Br)cc2cc1[C@@H](c1ccccc1)[C@@](O)(CCN(C)C)c1cccc2ccccc12 [Bedaquiline, bedaquiline, reference compound] | > 32 mg/L |  |  |  |  |  |  |
|  |  | CNC(C)C1CCC(N)C(OC2C(N)CC(N)C(OC3OCC(C)(O)C(NC)C3O)C2O)O1 (stereo not drawn) [Gentamicin, reference compound] |  | > 16 mg/L | 8 mg/L (≈ 16.8 µM) |  |  |  |  |
|  |  | CCN1CCC(CCNCc2cccnc2SCc2ccccc2)CC1 [WSA 264] |  | > 128 mg/L | > 128 mg/L | -0.8 | 83.9 µM |  |  |
|  |  | c1ccc(CSc2ncccc2CNCCC2CCN(C3CCCC3)CC2)cc1 [WSA 265] |  | > 128 mg/L | > 128 mg/L | -0.7 | 132 µM |  |  |
|  |  | c1ccc(CSc2ncccc2CNCc2ccc(CN3CCCC3)cc2)cc1 [WSA 267] |  | 128 mg/L (≈ 317 µM) | 128 mg/L (≈ 317 µM) | -0.7 | 91.7 µM |  |  |
|  |  | CN1CCN(CCNCc2cccnc2SCc2ccccc2)CC1 [WSA 268] |  | > 128 mg/L | > 128 mg/L | -0.5 | > 180 µM |  |  |
|  |  | CN1CCN(CCNCc2cc(Br)cnc2SCc2ccccc2)CC1 [WSA 271] | 64 mg/L (≈ 147 µM) | > 128 mg/L | > 128 mg/L | -0.7 | 2.3 µM |  |  |
|  |  | CCN1CCC(CCNCc2cc(Br)cnc2SCc2ccccc2)CC1 [WSA 272] | 32 mg/L (≈ 71.4 µM) | 128 mg/L (≈ 285 µM) | 128 mg/L (≈ 285 µM) | -0.6 | 4.46 µM |  |  |
|  |  | CN1CCN(CCNCc2cc(-c3ccccc3)cnc2SCc2ccccc2)CC1 [WSA 277] | 16 mg/L (≈ 37 µM) | 128 mg/L (≈ 296 µM) | 32 mg/L (≈ 74 µM) | -0.7 | 2.17 µM |  |  |
|  |  | COc1ccc(-c2cnc(SCc3ccccc3)c(CNCCN3CCN(C)CC3)c2)cc1 [WSA 278] | 16 mg/L (≈ 34.6 µM) | 128 mg/L (≈ 277 µM) | 64 mg/L (≈ 138 µM) | -0.8 |  | 2.07 µM |  |
|  |  | COc1ccc(-c2cnc(SCc3ccccc3)c(CNCCC3CCN(C4CCCC4)CC3)c2)cc1F [WSA 290] | 4 mg/L (≈ 7.49 µM) | 32 mg/L (≈ 60 µM) | 32 mg/L (≈ 60 µM) | -0.7 | 0.356 µM |  |  |
|  |  | Fc1ccc(-c2cnc(SCc3ccccc3)c(CNCCC3CCN(C4CCCC4)CC3)c2)cc1 [WSA 291] | <2 mg/L | 32 mg/L (≈ 63.5 µM) | 32 mg/L (≈ 63.5 µM) | -1.1 | 1.19 µM |  |  |
|  |  | Fc1ccc(-c2cnc(SCc3ccccc3)c(CNCCC3CCN(C4CCCC4)CC3)c2)c(F)c1 [WSA 292] | 4 mg/L (≈ 7.67 µM) | 32 mg/L (≈ 61.3 µM) | 16 mg/L (≈ 30.7 µM) | -1.1 | 0.997 µM |  |  |
|  |  | Brc1cnc(SCc2ccccc2)c(CNCc2ccc(CN3CCCC3)cc2)c1 [WSA 293] | 64 mg/L (≈ 133 µM) | 64 mg/L (≈ 133 µM) | 32 mg/L (≈ 66.3 µM) | -1.2 | 3.73 µM |  |  |
|  |  | c1ccc(CSc2ncc(-c3ccccc3)cc2CNCc2ccc(CN3CCCC3)cc2)cc1 [WSA 294] | 8 mg/L (≈ 16.7 µM) | 32 mg/L (≈ 66.7 µM) | 32 mg/L (≈ 66.7 µM) | -0.7 |  | 1.23 µM |  |
|  |  | Cc1ccc(-c2cnc(SCc3ccccc3)c(CNCc3ccc(CN4CCCC4)cc3)c2)cc1 [WSA 295] | 16 mg/L (≈ 32.4 µM) | 128 mg/L (≈ 259 µM) | 32 mg/L (≈ 64.8 µM) | -0.7 | 1.09 µM |  |  |
|  |  | COc1ccc(-c2cnc(SCc3ccccc3)c(CNCc3ccc(CN4CCCC4)cc3)c2)cc1 [WSA 296] | 16 mg/L (≈ 31.4 µM) | 128 mg/L (≈ 251 µM) | 32 mg/L (≈ 62.8 µM) | -0.6 |  | 0.863 µM |  |
|  |  | COc1ccc(-c2cnc(SCc3ccccc3)c(CNCc3ccc(CN4CCCC4)cc3)c2)cc1F [WSA 297] | 8 mg/L (≈ 15.2 µM) | 128 mg/L (≈ 243 µM) | 32 mg/L (≈ 60.6 µM) | -0.8 |  | 0.796 µM |  |
|  |  | Fc1ccc(-c2cnc(SCc3ccccc3)c(CNCc3ccc(CN4CCCC4)cc3)c2)c(F)c1 [WSA 299] | 16 mg/L (≈ 31 µM) | 128 mg/L (≈ 248 µM) | 32 mg/L (≈ 62.1 µM) | -1.1 | 2.13 µM |  |  |
|  |  | CCN1CCC(CCNCc2cc(-c3ccc(C)cc3)cnc2SCc2ccccc2)CC1 [WSA 300] | 4 mg/L (≈ 8.7 µM) | 32 mg/L (≈ 69.6 µM) | 16 mg/L (≈ 34.8 µM) | -0.7 | 0.674 µM |  |  |
|  |  | Brc1cnc(SCc2ccccc2)c(CNCCC2CCN(C3CCCC3)CC2)c1 [WSA 301] | 16 mg/L (≈ 32.8 µM) | > 128 mg/L | 128 mg/L (≈ 262 µM) | -0.5 | 2.66 µM |  |  |
|  |  | c1ccc(CSc2ncc(-c3ccccc3)cc2CNCCC2CCN(C3CCCC3)CC2)cc1 [WSA 302] | 16 mg/L (≈ 32.9 µM) | 64 mg/L (≈ 132 µM) | 64 mg/L (≈ 132 µM) | -0.8 |  | 0.988 µM |  |
|  |  | CN(C)c1ccc(-c2cnc(SCc3ccccc3)c(CNCCC3CCN(C4CCCC4)CC3)c2)cc1 [WSA 303] | 4 mg/L (≈ 7.56 µM) | 128 mg/L (≈ 242 µM) | 64 mg/L (≈ 121 µM) | -1.2 | 1.19 µM |  |  |
|  |  | CCN1CCC(CCNCc2cc(-c3ccccc3)cnc2SCc2ccccc2)CC1 [WSA 304] | 8 mg/L (≈ 18 µM) | 64 mg/L (≈ 144 µM) | 32 mg/L (≈ 71.8 µM) | -0.7 | 1.37 µM |  |  |
|  |  | CCN1CCC(CCNCc2cc(-c3ccc(OC)cc3)cnc2SCc2ccccc2)CC1 [WSA 305] | 4 mg/L (≈ 8.41 µM) | 32 mg/L (≈ 67.3 µM) | 32 mg/L (≈ 67.3 µM) | -0.6 | 0.568 µM |  | -0.7 |
|  |  | CCN1CCC(CCNCc2cc(-c3ccc(OC)c(F)c3)cnc2SCc2ccccc2)CC1 [WSA 306] | 16 mg/L (≈ 32.4 µM) | 32 mg/L (≈ 64.8 µM) | 32 mg/L (≈ 64.8 µM) | -0.9 | 1.07 µM |  |  |
|  |  | CCN1CCC(CCNCc2cc(-c3ccc(F)cc3)cnc2SCc2ccccc2)CC1 [WSA 307] | 8 mg/L (≈ 17.3 µM) | 32 mg/L (≈ 69 µM) | 32 mg/L (≈ 69 µM) | -0.8 | 1.16 µM |  |  |
|  |  | CCN1CCC(CCNCc2cc(-c3ccc(F)cc3F)cnc2SCc2ccccc2)CC1 [WSA 308] | 16 mg/L (≈ 33.2 µM) | 64 mg/L (≈ 133 µM) | 32 mg/L (≈ 66.4 µM) | -0.9 | 1.81 µM |  |  |
| 1 mg/L | 2 mg/L | colistin [reference compound] |  |  |  |  |  |  |  |
